How the values were obtained:
Assay in all cases: drug sensitivity score (DSS3, normalised partial AUC of % inhibition dose-response) (DSS (score)); higher = more sensitive (stronger inhibition of viability); extreme values may be limits of the assay
Conditions in all cases: 72 h; library: FO5A; assay format: 2D, 384-well, CellTiter-Glo
FMOC02_2 = system: FMOC02_2 (patient-derived low-grade serous ovarian cancer cells)
In short: (§1)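 Patient-derived ovarian cancer cells (early passage, under 10) were dispensed onto 384-well flat clear-bottom plates pre-plated with compounds at five concentrations covering a 10,000-fold range. Plates were incubated 72 h at 37 °C, 5% CO2, and viability was read with CellTiter-Glo. Data were processed in Breeze. The drug sensitivity score (DSS3) is a partial area under the percent-inhibition dose-response curve, divided by the log of the upper asymptote; higher means more sensitive.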

FMOC02_3 = system: FMOC02_3 (patient-derived low-grade serous ovarian cancer cells)
In short: as §1

FMOC03 = system: FMOC03 (patient-derived mucinous ovarian cancer cells)
In short: as §1

FMOC06 = system: FMOC06 (patient-derived mucinous ovarian cancer cells)
In short: as §1

FMOC09 = system: FMOC09 (patient-derived high-grade serous ovarian cancer cells)
In short: as §1

FMOC14 = system: FMOC14 (patient-derived high-grade serous ovarian cancer cells)
In short: as §1

FMOC22 = system: FMOC22 (patient-derived mucinous ovarian cancer cells)
In short: as §1

FMOC24 = system: FMOC24 (patient-derived high-grade serous ovarian cancer cells)
In short: as §1

FMOC25_2 = system: FMOC25_2 (patient-derived low-grade serous ovarian cancer cells)
In short: as §1

CC(C)(C)c1cc(NC(=O)Nc2ccc(Oc3ccnc4[nH]c(=O)cnc34)cc2F)n(-c2ccccc2)n1
drug sensitivity score (FMOC02_2): 0.2 | drug sensitivity score (FMOC02_3): 7.1 | drug sensitivity score (FMOC03): 5.3 | drug sensitivity score (FMOC06): 3.6 | drug sensitivity score (FMOC09): 3 | drug sensitivity score (FMOC14): 0.1 | drug sensitivity score (FMOC22): 3.8 | drug sensitivity score (FMOC24): 1.6 | drug sensitivity score (FMOC25_2): 17.8

CN(C)CC#Cc1ccc(OCCCc2sc(N3CCc4cccc(C(=O)Nc5nc6ccccc6s5)c4C3)nc2C(=O)O)c(F)c1
drug sensitivity score (FMOC02_2): 27.6 | drug sensitivity score (FMOC02_3): 34 | drug sensitivity score (FMOC03): 20.7 | drug sensitivity score (FMOC06): 25.5 | drug sensitivity score (FMOC09): 9.7 | drug sensitivity score (FMOC14): 21.3 | drug sensitivity score (FMOC22): 13.5 | drug sensitivity score (FMOC24): 36.8 | drug sensitivity score (FMOC25_2): 33.4

CN1CCN(C2CCC(n3cc(-c4ccc(Oc5ccccc5)cc4)c4c(N)ncnc43)CC2)CC1 (stereo not drawn)
drug sensitivity score (FMOC02_2): 19.8 | drug sensitivity score (FMOC02_3): 20 | drug sensitivity score (FMOC03): 9.1 | drug sensitivity score (FMOC06): 8.3 | drug sensitivity score (FMOC09): 19.1 | drug sensitivity score (FMOC14): 7.3 | drug sensitivity score (FMOC22): 5.5 | drug sensitivity score (FMOC24): 9.1 | drug sensitivity score (FMOC25_2): 9.9

CO[C@@H](C)Cn1c(=O)n(C)c2cnc3ccc(-c4cncc(C(C)(C)O)c4)cc3c21
drug sensitivity score (FMOC02_2): 15.3 | drug sensitivity score (FMOC02_3): 17 | drug sensitivity score (FMOC03): 9.2 | drug sensitivity score (FMOC06): 11 | drug sensitivity score (FMOC09): 7.4 | drug sensitivity score (FMOC14): 8.3 | drug sensitivity score (FMOC22): 9.1 | drug sensitivity score (FMOC24): 7.6 | drug sensitivity score (FMOC25_2): 15.7

COc1ccc2[nH]cc(/C=C3\C(=O)Nc4ccc(NC(=O)CCN5CCCCC5)cc43)c2c1
drug sensitivity score (FMOC02_2): 12.7 | drug sensitivity score (FMOC02_3): 10.8 | drug sensitivity score (FMOC03): 7.6 | drug sensitivity score (FMOC06): 6.4 | drug sensitivity score (FMOC09): 5.4 | drug sensitivity score (FMOC14): 5.1 | drug sensitivity score (FMOC22): 6.1 | drug sensitivity score (FMOC24): 12.7 | drug sensitivity score (FMOC25_2): 8.6

Cc1c(-c2ccc(N3CCc4cccc(C(=O)Nc5nc6ccccc6s5)c4C3)nc2C(=O)O)cnn1CC12CC3CC(CC(C3)C1)C2
drug sensitivity score (FMOC02_2): 14.5 | drug sensitivity score (FMOC02_3): 26.7 | drug sensitivity score (FMOC03): 12.5 | drug sensitivity score (FMOC06): 16.8 | drug sensitivity score (FMOC09): 3.1 | drug sensitivity score (FMOC14): 8.8 | drug sensitivity score (FMOC22): 5.7 | drug sensitivity score (FMOC24): 23 | drug sensitivity score (FMOC25_2): 24

Cc1sc2c(c1C)C(c1ccc(Cl)cc1)=N[C@@H](CC(=O)Nc1ccc(OCCOCCOCCOCCNc3cccc4c3C(=O)N(C3CCC(=O)NC3=O)C4=O)cc1)c1nnc(C)n1-2 (stereo partly drawn) [ARV-825]
drug sensitivity score (FMOC02_2): 7.1 | drug sensitivity score (FMOC02_3): 13 | drug sensitivity score (FMOC03): 4 | drug sensitivity score (FMOC06): 14.9 | drug sensitivity score (FMOC09): 8.3 | drug sensitivity score (FMOC14): 11.4 | drug sensitivity score (FMOC22): 3.6 | drug sensitivity score (FMOC24): 6 | drug sensitivity score (FMOC25_2): 17.1

C=CCn1c(=O)c2cnc(Nc3ccc(N4CCN(C)CC4)cc3)nc2n1-c1cccc(C(C)(C)O)n1 [AZD1775]
drug sensitivity score (FMOC02_2): 10.8 | drug sensitivity score (FMOC02_3): 17.5 | drug sensitivity score (FMOC03): 6.1 | drug sensitivity score (FMOC06): 8.5 | drug sensitivity score (FMOC09): 7.9 | drug sensitivity score (FMOC14): 14.6 | drug sensitivity score (FMOC22): 6.9 | drug sensitivity score (FMOC24): 8.15 | drug sensitivity score (FMOC25_2): 15.2

Cc1[nH]nc(C(F)(F)F)c1Cc1sc2c(c1C(=O)N1C[C@](C)(O)CO1)c(=O)n(C)c(=O)n2C(C)C [AZD3965]
drug sensitivity score (FMOC02_2): 0 | drug sensitivity score (FMOC02_3): 0.8 | drug sensitivity score (FMOC03): 0 | drug sensitivity score (FMOC06): 0 | drug sensitivity score (FMOC09): 0 | drug sensitivity score (FMOC14): 0 | drug sensitivity score (FMOC22): 0 | drug sensitivity score (FMOC24): 1.5 | drug sensitivity score (FMOC25_2): 0

C[C@@H]1COCCN1c1cc(C2([S@](C)(=N)=O)CC2)nc(-c2cc[nH]c3nccc2-3)n1 [AZD6738]
drug sensitivity score (FMOC02_2): 7.8 | drug sensitivity score (FMOC02_3): 11.1 | drug sensitivity score (FMOC03): 5 | drug sensitivity score (FMOC06): 6.9 | drug sensitivity score (FMOC09): 7.7 | drug sensitivity score (FMOC14): 10.7 | drug sensitivity score (FMOC22): 7.4 | drug sensitivity score (FMOC24): 8 | drug sensitivity score (FMOC25_2): 12.5

CCN(CC)CCNC(=O)c1c(C)[nH]c(/C=C2\C(=O)Nc3ccc(-c4csc(-c5ccccc5)n4)cc32)c1C [Amcasertib]
drug sensitivity score (FMOC02_2): 1.6 | drug sensitivity score (FMOC02_3): 0 | drug sensitivity score (FMOC03): 1.2 | drug sensitivity score (FMOC06): 0.5 | drug sensitivity score (FMOC09): 0.3 | drug sensitivity score (FMOC14): 0.1 | drug sensitivity score (FMOC22): 2.7 | drug sensitivity score (FMOC24): 8.9 | drug sensitivity score (FMOC25_2): 0.1

O=C1CCc2c(Oc3ccc4c(c3)[C@@H]3[C@H](O4)[C@H]3c3nc4cc(C(F)(F)F)ccc4[nH]3)ccnc2N1 [BGB-283]
drug sensitivity score (FMOC02_2): 7.4 | drug sensitivity score (FMOC02_3): 6.8 | drug sensitivity score (FMOC03): 4.5 | drug sensitivity score (FMOC06): 4.8 | drug sensitivity score (FMOC09): 4.9 | drug sensitivity score (FMOC14): 1 | drug sensitivity score (FMOC22): 3.7 | drug sensitivity score (FMOC24): 0.9 | drug sensitivity score (FMOC25_2): 5.8

Cc1sc2c(c1C)C(c1ccc(Cl)cc1)=N[C@@H](CC(=O)Nc1ccc(O)cc1)c1nnc(C)n1-2 [Birabresib]
drug sensitivity score (FMOC02_2): 13.5 | drug sensitivity score (FMOC02_3): 18.5 | drug sensitivity score (FMOC03): 5.5 | drug sensitivity score (FMOC06): 5.1 | drug sensitivity score (FMOC09): 3.6 | drug sensitivity score (FMOC14): 1.1 | drug sensitivity score (FMOC22): 6.7 | drug sensitivity score (FMOC24): 7.65 | drug sensitivity score (FMOC25_2): 8.5

CCN1C(=O)CNc2ncc(-c3ccc(-c4nc[nH]n4)nc3C)nc21 [CC-115]
drug sensitivity score (FMOC02_2): 14.2 | drug sensitivity score (FMOC02_3): 9.5 | drug sensitivity score (FMOC03): 8 | drug sensitivity score (FMOC06): 10.9 | drug sensitivity score (FMOC09): 6.7 | drug sensitivity score (FMOC14): 8.9 | drug sensitivity score (FMOC22): 6.3 | drug sensitivity score (FMOC24): 6.2 | drug sensitivity score (FMOC25_2): 16

CO[C@H]1CC[C@H](N2C(=O)CNc3ncc(-c4ccc(C(C)(C)O)nc4)nc32)CC1 [CC-223]
drug sensitivity score (FMOC02_2): 8.6 | drug sensitivity score (FMOC02_3): 9.2 | drug sensitivity score (FMOC03): 4 | drug sensitivity score (FMOC06): 5.1 | drug sensitivity score (FMOC09): 3.5 | drug sensitivity score (FMOC14): 3.5 | drug sensitivity score (FMOC22): 3 | drug sensitivity score (FMOC24): 2.4 | drug sensitivity score (FMOC25_2): 8.6

Cc1noc2c1-c1ccccc1C(c1ccc(Cl)cc1)=N[C@H]2CC(N)=O [CPI-0610]
drug sensitivity score (FMOC02_2): 7.8 | drug sensitivity score (FMOC02_3): 12.5 | drug sensitivity score (FMOC03): 4.3 | drug sensitivity score (FMOC06): 0.6 | drug sensitivity score (FMOC09): 4.3 | drug sensitivity score (FMOC14): 1.5 | drug sensitivity score (FMOC22): 3.3 | drug sensitivity score (FMOC24): 6.4 | drug sensitivity score (FMOC25_2): 4

C[C@H]1O[C@@H](O[C@H]2[C@@H](O)C[C@H](O[C@H]3[C@@H](O)C[C@H](O[C@H]4CC[C@@]5(C)[C@H](CC[C@@H]6[C@@H]5C[C@@H](O)[C@]5(C)[C@@H](C7=CC(=O)OC7)CC[C@]65O)C4)O[C@@H]3C)O[C@@H]2C)C[C@H](O)[C@@H]1O [Digoxin]
drug sensitivity score (FMOC02_2): 11.1 | drug sensitivity score (FMOC02_3): 14.4 | drug sensitivity score (FMOC03): 9.6 | drug sensitivity score (FMOC06): 10.7 | drug sensitivity score (FMOC09): 14.3 | drug sensitivity score (FMOC14): 10.3 | drug sensitivity score (FMOC22): 9.7 | drug sensitivity score (FMOC24): 17.1 | drug sensitivity score (FMOC25_2): 18.3
